# Patent US20030129629A1, “Methods and compositions for the identification, assessment, prevention, and therapy of human cancers” (Millennium Pharmaceuticals, Inc., priority 2000, published 2003)
# Tested on: 60 cancer cell lines (NCI 60 cancer cell line series)
# Test: NCI-DTP in vitro cancer screen, sulforhodamine B (SRB) growth inhibition, 48 hour exposure
# Type: cell-based, human
# Method in brief: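 NCI-DTP panel of 60 cancer cell lines plated day 0 at line-specific densities, exposed from day 1 to compound at 5 ten-fold-spaced doses in duplicate wells. After 48 h, cell mass stained with sulforhodamine B; −log GI50 derived from dose–response curves, averaged, and classed Low, Medium or High sensitivity.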
smiles,measurement,setting,value
Sc1ncnc2nc[nH]c12 [6-mercaptopurine],"classification of cell line as Low(1), Medium(2), High(3) sensitivity to compound",Breast BT-549 CL5013,1
same,"classification of cell line as Low(1), Medium(2), High(3) sensitivity to compound",Breast HS-578T CL5006,1
same,"classification of cell line as Low(1), Medium(2), High(3) sensitivity to compound",Breast MCF7(I) CL5001,2
same,"classification of cell line as Low(1), Medium(2), High(3) sensitivity to compound",Breast MCF7/ADRr CL5002,2
same,"classification of cell line as Low(1), Medium(2), High(3) sensitivity to compound",Breast MDA-MB-231 CL5005,1
same,"classification of cell line as Low(1), Medium(2), High(3) sensitivity to compound",Breast MDA-MB-435 CL5011,2
same,"classification of cell line as Low(1), Medium(2), High(3) sensitivity to compound",Breast MDA-N CL5012,2
same,"classification of cell line as Low(1), Medium(2), High(3) sensitivity to compound",Breast T-47D CL5014,2
same,"classification of cell line as Low(1), Medium(2), High(3) sensitivity to compound",CNS SF-268 CL12014,2
same,"classification of cell line as Low(1), Medium(2), High(3) sensitivity to compound",CNS SF-295 CL12015,2
same,"classification of cell line as Low(1), Medium(2), High(3) sensitivity to compound",CNS SF-539 CL12016,2
same,"classification of cell line as Low(1), Medium(2), High(3) sensitivity to compound",CNS SNB-19 CL12002,1
same,"classification of cell line as Low(1), Medium(2), High(3) sensitivity to compound",CNS SNB-75(I) CL12005,2
same,"classification of cell line as Low(1), Medium(2), High(3) sensitivity to compound",CNS U251(I) CL12009,2
same,"classification of cell line as Low(1), Medium(2), High(3) sensitivity to compound",Colon COLO-250 CL4010,2
same,"classification of cell line as Low(1), Medium(2), High(3) sensitivity to compound",Colon HCC-2998 CL4002,2
same,"classification of cell line as Low(1), Medium(2), High(3) sensitivity to compound",Colon HCT-15 CL4015,2
same,"classification of cell line as Low(1), Medium(2), High(3) sensitivity to compound",Colon HCT-116 CL4003,2
same,"classification of cell line as Low(1), Medium(2), High(3) sensitivity to compound",Colon HT29(I) CL4001,2
same,"classification of cell line as Low(1), Medium(2), High(3) sensitivity to compound",Colon KM12 CL4017,2
same,"classification of cell line as Low(1), Medium(2), High(3) sensitivity to compound",Colon SW-620 CL4009,2
same,"classification of cell line as Low(1), Medium(2), High(3) sensitivity to compound",Leukemia CCRF-CEM(I) CL7003,3
same,"classification of cell line as Low(1), Medium(2), High(3) sensitivity to compound",Leukemia HL-60(I) CL7008,2
same,"classification of cell line as Low(1), Medium(2), High(3) sensitivity to compound",Leukemia K562(I) CL7005,3
same,"classification of cell line as Low(1), Medium(2), High(3) sensitivity to compound",Leukemia MOLT-4 CL7006,2
same,"classification of cell line as Low(1), Medium(2), High(3) sensitivity to compound",Leukemia RPMI-8226(I) CL7010,2
same,"classification of cell line as Low(1), Medium(2), High(3) sensitivity to compound",Leukemia SR CL7019,3
same,"classification of cell line as Low(1), Medium(2), High(3) sensitivity to compound",Melanoma LOX IMVI CL10001,3
same,"classification of cell line as Low(1), Medium(2), High(3) sensitivity to compound",Melanoma M14 CL10014,3
same,"classification of cell line as Low(1), Medium(2), High(3) sensitivity to compound",Melanoma MALME-3M CL10002,2
same,"classification of cell line as Low(1), Medium(2), High(3) sensitivity to compound",Melanoma SK-MEL-2 CL10005,2
same,"classification of cell line as Low(1), Medium(2), High(3) sensitivity to compound",Melanoma SK-MEL-5 CL10007,2
same,"classification of cell line as Low(1), Medium(2), High(3) sensitivity to compound",Melanoma SK-MEL-28 CL10008,1
same,"classification of cell line as Low(1), Medium(2), High(3) sensitivity to compound",Melanoma UACC-62 CL10020,2
same,"classification of cell line as Low(1), Medium(2), High(3) sensitivity to compound",Melanoma UACC-257 CL10021,1
same,"classification of cell line as Low(1), Medium(2), High(3) sensitivity to compound",NSCLC A549/ATCC CL1004,1
same,"classification of cell line as Low(1), Medium(2), High(3) sensitivity to compound",NSCLC EKVX CL1008,1
same,"classification of cell line as Low(1), Medium(2), High(3) sensitivity to compound",NSCLC HOP-62 CL1026,2
same,"classification of cell line as Low(1), Medium(2), High(3) sensitivity to compound",NSCLC HOP-92 CL1029,2
same,sensitivity classification Low(1)/Medium(2)/High(3),NSCLC NCI-H23(I) CL1001,2
same,"classification of cell line as Low(1), Medium(2), High(3) sensitivity to compound",NSCLC NCI-H226 CL1013,1
same,sensitivity classification Low(1)/Medium(2)/High(3),NSCLC NCI-H332M CL1017,2
same,sensitivity classification Low(1)/Medium(2)/High(3),NSCLC NCI-H460 CL1021,2
same,sensitivity classification Low(1)/Medium(2)/High(3),NSCLC NCI-H522 CL1003,2
same,sensitivity classification Low(1)/Medium(2)/High(3),Ovarian IGROV1 CL6010,2
same,sensitivity classification Low(1)/Medium(2)/High(3),Ovarian OVCAR-3 CL6001,3
same,sensitivity classification Low(1)/Medium(2)/High(3),Ovarian OVCAR-4 CL6002,2
same,sensitivity classification Low(1)/Medium(2)/High(3),Ovarian OVCAR-5 CL6003,2
same,sensitivity classification Low(1)/Medium(2)/High(3),Ovarian OVCAR-8 CL6005,2
same,sensitivity classification Low(1)/Medium(2)/High(3),Ovarian SK-OV-3 CL6011,3
same,sensitivity classification Low(1)/Medium(2)/High(3),Prostate DU-145 CL11003,2
same,sensitivity classification Low(1)/Medium(2)/High(3),Prostate PC-3(I) CL11001,2
same,sensitivity classification Low(1)/Medium(2)/High(3),Renal 786-0 CL9018,2
same,sensitivity classification Low(1)/Medium(2)/High(3),Renal A498 CL9013,1
same,sensitivity classification Low(1)/Medium(2)/High(3),Renal ACHN CL9023,2
same,sensitivity classification Low(1)/Medium(2)/High(3),Renal CAKI-1 CL9015,2
same,sensitivity classification Low(1)/Medium(2)/High(3),Renal RXF-393 CL9016,1
same,sensitivity classification Low(1)/Medium(2)/High(3),Renal SN12C CL9008,1
same,sensitivity classification Low(1)/Medium(2)/High(3),Renal TK10 CL9024,2
same,sensitivity classification Low(1)/Medium(2)/High(3),Renal UO-31 CL9004,2
